# Reference: US20020193564A1, “Oligomeric chaperone proteins” (priority 1999, published 2002)
# T1: heat- and dithiothreitol-denatured mtMDH (Sus scrofa, UniProt P00346)
# T1 construct: Boehringer-Mannheim); purchased Boehringer-Mannheim; host or cells: pig heart
# T1 sequence (P00346 25-338): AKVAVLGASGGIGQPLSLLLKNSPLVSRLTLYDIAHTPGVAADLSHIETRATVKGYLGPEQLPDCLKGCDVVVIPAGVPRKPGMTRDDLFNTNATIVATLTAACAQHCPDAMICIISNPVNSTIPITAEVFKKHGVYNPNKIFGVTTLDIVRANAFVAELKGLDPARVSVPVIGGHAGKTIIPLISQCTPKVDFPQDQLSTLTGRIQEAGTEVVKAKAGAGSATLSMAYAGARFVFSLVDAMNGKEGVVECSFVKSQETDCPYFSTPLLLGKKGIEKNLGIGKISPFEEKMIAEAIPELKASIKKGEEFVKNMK
# B1: GroEL(191-376): monomeric minichaperone, apical domain of GroEL, residues 191 to 376 (protein, UniProt P0A6F5 191-376, looked up, fragment)
# chain: EGMQFDRGYLSPYFINKPETGAVELESPFILLADKKISNIREMLPVLEAVAKAGKPLLIIAEDVEGEALATLVVNTMRGIVKVAAVKAPGFGDRRKAMLQDIATLTGGTVISEEIGMELEKATLEDLGQAKRVVINKDTTTIIDGVGEEAAIQGRVAQIRQQIEEATSDYDREKLQERVAKLAGGV
# modifications: apical domain
# Tests used:
# [1] = system: COS-7, PC12, and SH-SY5Y cells; conditions: treatment with proteasome inhibitor; cited from earlier work
# [2] = system: mutant Huntingdon exon 1-expressing PC12 and SH-SY5Y cells; conditions: overexpression; cited from earlier work
# COS-7 cells = conditions: overexpression; cited from earlier work
# bacteriophage λ = assay: Growth of bacteriophage λ in transformed groEL strains; format: cell-based, bacteriophage λ (b2cI) in E. coli; conditions: SV1 (groE^+)
# From the text: The E. Coli strains used in this study were: C41(DE3), a mutant of BL21(DE3) capable of expressing toxic genes (Miroux, B. & Walker, J. E. (1996) J. Mol. Biol. 260, 289-298); SV2 (B178groEL44), SV3 (B178groEL59) and SV6 (B178groEL673): isogenic strains carrying temperature-sensitive alleles of groEL; SV1(=B178) (Georgopoulos, C., Hendrix, R. W., Casjens, S. R. & Kaiser, A. D. (1973) J. Mol. Biol. 76, 45-60), A190 (ΔgroEL::kan^R) [pBAD-EL] (Ivic, A., Olden, D., Wallington, E. J. & Lund, P. A. (1997) Gene 194, 1-8), and TG1 (Gibson, T. J. (1984) Ph.D. thesis, University of Cambridge, U.K). Bacteriophage λb2cI (Zeilstra-Ryalls, J., Fayet, O., Baird, L. & Georgopoulos, C. (1993) J. Bacteriol. 175, 1134-1143) was used according to standard methods (Arber, W., Enquist, L., Hohn, B., Murray, N. E. & Murray, K. (1983) in Lambda II., ed. R. W. Hendrix, J. W. r., F. W. Stahl and R. A. Weisberg (Cold Spring Harbor Laboratory, Cold Spring Harbor, N.Y.), pp. 433-466); plaque formation was assayed at 30° C. T4D0, a derivative of bacteriophage T4 (Zeilstra-Ryalls, J., Fayet, O., Baird, L. & Georgopoulos, C. (1993) J. Bacteriol. 175, 1134-1143), was used according to standard methods (Karam, J. D. (1994) Molecular biology of bacteriophage T4. (American Society for Microbiology, Washington, D.C.)); plaque formation was assayed at 37° C.
# [3] = target: T1, heat- and dithiothreitol-denatured mtMDH; assay: In vitro refolding of denatured mtMDH; format: biochemical, pig; conditions: FIG. 7b
# Method: In vitro Refolding Experiments.
# Refolding assays of pig heart mitochondrial malate dehydrogenase (mtMDH; Boehringer-Mannheim) and aggregation protection were carried out essentially as described (Peres Ben-Zvi, A. P., Chatellier, J., Fersht, A. R. & Goloubinoff, P. (1998) Proc. Natl. Acad. Sci. U.S.A. 95, 15275-15280). The concentrations of MC7 used were between 8-16 μM (reporter to protomer).
# GroES = GroES (Escherichia coli, UniProt P0A6F9); conditions: ELISA, FIG. 5a
# Method: GroES Binding and Competition Assays by ELISA (Enzyme-Linked Immunosorbant Assay).
# Proteins were coated onto plastic microtitre plates (Maxisorb, Nunc) overnight at 4° C. at a concentration of 10 μg/mL in carbonate buffer (50 mM NaHCO3, pH 9.6). Plates were blocked for 1 hour at 25° C. with 2% Marvel in PBS (phosphate buffered saline: 25 mM NaH2PO4, 125 mM NaCl, pH 7.0). GroES, at 10 μg/mL in 100 μL of 10 mM Tris-HCl, 200 mM KCl, pH 7.4, were bound at 25° C. for 1 hour. Bound GroES were detected with rabbit anti-GroES antibodies (Sigma) followed by anti-rabbit immunoglobulins horseradish peroxidase conjugated antibodies (Sigma).
# Chain of GroES (P0A6F9 whole entry): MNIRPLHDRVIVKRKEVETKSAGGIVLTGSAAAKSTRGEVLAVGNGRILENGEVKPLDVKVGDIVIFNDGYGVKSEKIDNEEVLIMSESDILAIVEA
molecule,measurement,setting,value
CC(=O)N[C@@H](CSC(=O)[C@]1([C@@H](O)C(C)C)NC(=O)[C@H](C)[C@@H]1O)C(=O)O [lactacystin],proportion of cells with inclusions of mutant huntingtin exon 1,[1],increased the proportion of cells with inclusions
HDJ-2/HSDJ: a human HSP40 homologue,proportion of cells with inclusions / inclusion formation,[2],did not modify inclusion formation
same,inclusion formation in COS-7 cells,COS-7 cells,increased inclusion formation
B1,Effect of over-expression on λ growth / plaque counts,bacteriophage λ,no effect on plaque counts
same,enhancing the refolding rate of mtMDH,[3],ineffective in enhancing the refolding rate
same,Binding to GroES,GroES,did not detectably bind
